Test results: patent US9309242B2, “Substituted pyrido[2,3-b]pyrazines as FGFR kinase inhibitors” (priority 2011, dated 2016)

Key:
FGFR1 (h) = FGFR1 (h) (Homo sapiens, UniProt P11362); experiment: FGFR1 (enzymatic assay), TR-FRET; assay type: biochemical; conditions: read-out: FGFR 1 pIC50 (converted)
FGFR2 (h) = FGFR2 (h) (Homo sapiens, UniProt P21802); experiment: FGFR2 (enzymatic assay), TR-FRET; assay type: biochemical; conditions: enzymatic assay; read-out: FGFR 2 pIC50 (converted)
Procedure, shortened: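 Kinase reaction in 50 mM HEPES pH 7.5 with 6 mM MnCl2, 1 mM DTT, 0.1 mM Na3VO4 and 0.01% Triton-X-100 contained FGFR2 (h) at 150 ng/ml. Biotinylated Flt3 peptide (500 nM) served as substrate with 0.4 μM ATP, compound added in 1% DMSO final.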

FGFR3 (h) = FGFR3 (h) (Homo sapiens, UniProt P22607); experiment: FGFR3 (enzymatic assay), TR-FRET; assay type: biochemical; conditions: read-out: FGFR 3 pIC50 (converted)
Source text: Time-Resolved Fluorescence Resonance Energy Transfer (TR-FRET) signal (ex340 nm.

FGFR4 (h) = FGFR4 (h) (Homo sapiens, UniProt P22455); experiment: FGFR4 (enzymatic assay), TR-FRET; assay type: biochemical; conditions: FGFR 4 pIC50, enzymatic assay
[1] = target: T1, Ba/F3-FGFR1-transfected cells (Homo sapiens, UniProt P11362); experiment: Ba/F3-FGFR1 (minus IL3) cellular proliferation assay, Alamar Blue; assay type: cell-based
T1 construct: BAF3-FGFR1 (MIN IL3) pIC50; other: minus IL3
Procedure, shortened: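 Ba/F3 cells transfected with FGFR1 (20000 cells/well) were plated onto compound in phenol red-free RPMI-1640 with 10% FBS, 2 mM L-glutamine and gentamycin, then kept 24 h at 37 °C, 5% CO2. Alamar Blue (resazurin) was added for 4 h and fluorescence read at ex 540/em 590 nm.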

[2] = tested on: Ba/F3-FGFR1-transfected cells; experiment: Ba/F3-FGFR1 (plus IL3) cellular proliferation assay, counterscreen with 10 ng/ml murine IL3; assay type: cell-based; conditions: plus IL3 (10 ng/ml murine IL3, counterscreen); read-out: BAF3-FGFR1 (PLUS IL3) pIC50 (converted)
Procedure, shortened: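 Ba/F3-FGFR1 cells (20000/well) in RPMI-1640 with 10% FBS exposed to compound for 24 h at 37° C., 5% CO2, then Alamar Blue (resazurin) added for 4 h; fluorescence read at ex 540/em 590 nm. Counterscreen run identically with 10 ng/ml murine IL3.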

[3] = target: T2, Ba/F3-FGFR3-transfected cells (Homo sapiens, UniProt P22607); experiment: Ba/F3-FGFR3 (minus IL3) cellular proliferation assay, Alamar Blue; assay type: cell-based
T2 construct: BAF3-FGFR3 (MIN IL3) pIC50; other: minus IL3
Procedure, shortened: (§1)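 Ba/F3 cells transfected with FGFR3 were seeded at 20000 cells/well in phenol red-free RPMI-1640 with 10% FBS over compound in DMSO and kept 24 hours at 37° C, 5% CO2. Alamar Blue (resazurin) was then added for 4 hours and fluorescence read at ex 540/em 590 nm. The counterscreen repeated this with 10 ng/ml murine IL3.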

[4] = tested on: Ba/F3-FGFR3-transfected cells; experiment: Ba/F3-FGFR3 (plus IL3) cellular proliferation assay, counterscreen with 10 ng/ml murine IL3; assay type: cell-based; conditions: plus IL3 (10 ng/ml murine IL3, counterscreen); read-out: BAF3-FGFR3 (PLUS IL3) pIC50 (converted)
Procedure, shortened: as §1

[5] = target: T3, Ba/F3-KDR-transfected cells (Homo sapiens, UniProt P35968); experiment: Ba/F3-KDR (minus IL3) cellular proliferation assay, Alamar Blue; assay type: cell-based
T3 construct: BAF3-KDR (MIN IL3) pIC50; other: minus IL3
Procedure, shortened: (§2)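 Proliferation is measured as Alamar Blue relative fluorescence units following 24 h compound treatment of 20000 cells per well in 10% FBS medium. The IL3-supplemented run serves as a counterscreen under the same conditions.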

[6] = tested on: Ba/F3-KDR-transfected cells; experiment: Ba/F3-KDR (plus IL3) cellular proliferation assay, counterscreen with 10 ng/ml murine IL3; assay type: cell-based; conditions: plus IL3 (10 ng/ml murine IL3, counterscreen); read-out: BAF3-KDR (PLUS IL3) pIC50 (converted)
Procedure, shortened: as §2

T1 sequence (P11362 whole entry, change not shown): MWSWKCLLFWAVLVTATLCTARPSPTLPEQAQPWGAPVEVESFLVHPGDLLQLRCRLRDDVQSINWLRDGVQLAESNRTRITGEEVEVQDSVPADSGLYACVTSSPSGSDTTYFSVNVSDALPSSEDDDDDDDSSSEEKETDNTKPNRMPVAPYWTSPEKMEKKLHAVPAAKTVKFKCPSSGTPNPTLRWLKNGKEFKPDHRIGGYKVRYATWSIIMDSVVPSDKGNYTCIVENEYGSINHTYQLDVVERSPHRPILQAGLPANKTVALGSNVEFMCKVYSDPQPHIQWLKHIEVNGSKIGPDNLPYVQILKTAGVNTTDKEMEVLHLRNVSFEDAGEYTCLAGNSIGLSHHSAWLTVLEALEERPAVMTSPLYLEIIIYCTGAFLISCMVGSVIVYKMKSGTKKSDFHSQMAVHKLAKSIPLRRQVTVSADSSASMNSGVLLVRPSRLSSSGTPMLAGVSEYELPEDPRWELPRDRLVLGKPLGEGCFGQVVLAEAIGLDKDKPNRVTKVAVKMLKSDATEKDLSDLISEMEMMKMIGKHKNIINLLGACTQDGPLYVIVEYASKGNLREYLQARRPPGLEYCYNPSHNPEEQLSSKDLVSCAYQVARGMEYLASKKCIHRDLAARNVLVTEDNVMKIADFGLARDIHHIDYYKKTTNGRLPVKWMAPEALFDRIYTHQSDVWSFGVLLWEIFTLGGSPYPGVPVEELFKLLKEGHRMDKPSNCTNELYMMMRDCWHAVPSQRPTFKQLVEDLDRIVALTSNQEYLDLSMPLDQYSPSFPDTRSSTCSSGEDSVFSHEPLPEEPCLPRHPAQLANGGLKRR
Chain of FGFR2 (h) (P21802 22-821): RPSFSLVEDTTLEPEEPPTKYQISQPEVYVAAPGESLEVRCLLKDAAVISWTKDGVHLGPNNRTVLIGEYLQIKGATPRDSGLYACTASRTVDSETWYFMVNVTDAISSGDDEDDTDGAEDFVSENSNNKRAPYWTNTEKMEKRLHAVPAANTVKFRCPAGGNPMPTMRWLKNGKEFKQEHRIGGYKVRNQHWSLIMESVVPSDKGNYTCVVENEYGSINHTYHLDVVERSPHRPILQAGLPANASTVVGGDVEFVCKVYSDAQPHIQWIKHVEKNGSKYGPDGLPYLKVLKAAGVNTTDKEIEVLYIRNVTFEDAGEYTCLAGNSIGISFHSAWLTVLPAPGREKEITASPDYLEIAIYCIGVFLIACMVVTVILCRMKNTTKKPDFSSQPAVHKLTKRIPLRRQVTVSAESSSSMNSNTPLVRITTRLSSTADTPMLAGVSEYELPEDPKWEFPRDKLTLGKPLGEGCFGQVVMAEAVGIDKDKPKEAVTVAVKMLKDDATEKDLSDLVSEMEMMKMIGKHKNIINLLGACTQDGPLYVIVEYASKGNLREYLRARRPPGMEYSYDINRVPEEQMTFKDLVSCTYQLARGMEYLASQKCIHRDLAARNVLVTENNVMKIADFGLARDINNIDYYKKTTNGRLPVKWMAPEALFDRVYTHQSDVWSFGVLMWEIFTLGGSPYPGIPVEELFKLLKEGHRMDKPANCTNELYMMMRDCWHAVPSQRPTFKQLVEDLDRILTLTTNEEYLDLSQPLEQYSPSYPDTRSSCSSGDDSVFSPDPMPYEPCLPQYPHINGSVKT
Chain of FGFR3 (h) (P22607 23-806): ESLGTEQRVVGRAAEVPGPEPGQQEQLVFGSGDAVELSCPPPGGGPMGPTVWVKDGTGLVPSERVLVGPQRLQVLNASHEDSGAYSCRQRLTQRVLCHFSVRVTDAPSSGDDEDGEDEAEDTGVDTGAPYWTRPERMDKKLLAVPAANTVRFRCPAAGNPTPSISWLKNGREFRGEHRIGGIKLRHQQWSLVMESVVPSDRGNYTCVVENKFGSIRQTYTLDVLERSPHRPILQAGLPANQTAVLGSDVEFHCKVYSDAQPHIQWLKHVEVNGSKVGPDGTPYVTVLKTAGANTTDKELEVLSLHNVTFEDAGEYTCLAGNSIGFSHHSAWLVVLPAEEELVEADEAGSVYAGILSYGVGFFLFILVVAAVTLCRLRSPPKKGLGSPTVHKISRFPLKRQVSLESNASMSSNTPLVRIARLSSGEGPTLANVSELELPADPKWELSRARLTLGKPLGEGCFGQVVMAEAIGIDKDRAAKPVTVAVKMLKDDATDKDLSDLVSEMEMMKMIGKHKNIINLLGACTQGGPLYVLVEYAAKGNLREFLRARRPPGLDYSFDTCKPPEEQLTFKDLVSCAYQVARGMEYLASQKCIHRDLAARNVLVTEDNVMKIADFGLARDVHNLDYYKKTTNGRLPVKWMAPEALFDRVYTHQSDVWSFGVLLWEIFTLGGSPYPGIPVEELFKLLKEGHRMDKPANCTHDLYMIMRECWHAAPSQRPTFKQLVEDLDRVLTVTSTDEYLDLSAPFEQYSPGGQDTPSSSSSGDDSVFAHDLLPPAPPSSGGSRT
T2 sequence (P22607 whole entry, change not shown): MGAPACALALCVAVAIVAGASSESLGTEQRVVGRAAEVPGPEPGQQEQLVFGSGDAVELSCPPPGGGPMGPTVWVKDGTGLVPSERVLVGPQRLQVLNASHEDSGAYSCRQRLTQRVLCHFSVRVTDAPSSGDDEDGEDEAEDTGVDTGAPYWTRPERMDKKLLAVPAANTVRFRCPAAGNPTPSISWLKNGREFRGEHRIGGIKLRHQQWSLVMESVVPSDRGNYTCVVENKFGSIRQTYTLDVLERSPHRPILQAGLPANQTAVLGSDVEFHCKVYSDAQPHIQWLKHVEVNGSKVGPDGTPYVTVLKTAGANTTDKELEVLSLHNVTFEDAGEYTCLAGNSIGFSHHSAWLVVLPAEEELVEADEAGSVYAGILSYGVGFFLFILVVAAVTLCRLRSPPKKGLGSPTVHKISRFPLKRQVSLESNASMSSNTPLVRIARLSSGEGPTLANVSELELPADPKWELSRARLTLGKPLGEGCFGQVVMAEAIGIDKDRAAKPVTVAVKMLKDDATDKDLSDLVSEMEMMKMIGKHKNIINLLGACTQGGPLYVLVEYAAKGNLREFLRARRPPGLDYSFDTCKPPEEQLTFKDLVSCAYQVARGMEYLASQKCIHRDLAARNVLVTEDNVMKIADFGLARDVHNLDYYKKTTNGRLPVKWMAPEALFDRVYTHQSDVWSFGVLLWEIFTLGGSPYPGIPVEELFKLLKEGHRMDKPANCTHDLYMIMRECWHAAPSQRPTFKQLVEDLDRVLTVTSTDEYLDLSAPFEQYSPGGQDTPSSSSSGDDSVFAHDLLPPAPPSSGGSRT
Chain of FGFR1 (h) (P11362 22-822): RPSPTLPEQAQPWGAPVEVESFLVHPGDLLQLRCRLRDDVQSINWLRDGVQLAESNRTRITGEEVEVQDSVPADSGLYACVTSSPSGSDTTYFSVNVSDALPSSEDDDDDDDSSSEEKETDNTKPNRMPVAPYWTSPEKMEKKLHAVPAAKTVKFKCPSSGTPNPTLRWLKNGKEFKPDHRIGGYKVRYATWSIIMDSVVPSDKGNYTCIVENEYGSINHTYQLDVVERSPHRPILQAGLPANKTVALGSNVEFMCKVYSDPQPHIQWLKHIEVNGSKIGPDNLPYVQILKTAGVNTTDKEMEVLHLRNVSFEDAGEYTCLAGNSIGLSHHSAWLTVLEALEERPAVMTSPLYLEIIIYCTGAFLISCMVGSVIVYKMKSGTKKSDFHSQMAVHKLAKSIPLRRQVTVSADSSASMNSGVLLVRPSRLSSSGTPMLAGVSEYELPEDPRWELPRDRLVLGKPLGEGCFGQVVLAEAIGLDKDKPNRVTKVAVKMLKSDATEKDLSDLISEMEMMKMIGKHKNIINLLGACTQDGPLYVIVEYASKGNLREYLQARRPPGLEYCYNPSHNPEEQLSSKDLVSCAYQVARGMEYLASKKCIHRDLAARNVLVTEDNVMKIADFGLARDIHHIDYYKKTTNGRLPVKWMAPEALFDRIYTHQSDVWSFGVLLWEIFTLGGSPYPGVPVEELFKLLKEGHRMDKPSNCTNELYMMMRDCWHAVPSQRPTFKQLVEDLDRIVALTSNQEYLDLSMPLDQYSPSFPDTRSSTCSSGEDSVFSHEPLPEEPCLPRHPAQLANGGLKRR
Chain of FGFR4 (h) (P22455 22-802): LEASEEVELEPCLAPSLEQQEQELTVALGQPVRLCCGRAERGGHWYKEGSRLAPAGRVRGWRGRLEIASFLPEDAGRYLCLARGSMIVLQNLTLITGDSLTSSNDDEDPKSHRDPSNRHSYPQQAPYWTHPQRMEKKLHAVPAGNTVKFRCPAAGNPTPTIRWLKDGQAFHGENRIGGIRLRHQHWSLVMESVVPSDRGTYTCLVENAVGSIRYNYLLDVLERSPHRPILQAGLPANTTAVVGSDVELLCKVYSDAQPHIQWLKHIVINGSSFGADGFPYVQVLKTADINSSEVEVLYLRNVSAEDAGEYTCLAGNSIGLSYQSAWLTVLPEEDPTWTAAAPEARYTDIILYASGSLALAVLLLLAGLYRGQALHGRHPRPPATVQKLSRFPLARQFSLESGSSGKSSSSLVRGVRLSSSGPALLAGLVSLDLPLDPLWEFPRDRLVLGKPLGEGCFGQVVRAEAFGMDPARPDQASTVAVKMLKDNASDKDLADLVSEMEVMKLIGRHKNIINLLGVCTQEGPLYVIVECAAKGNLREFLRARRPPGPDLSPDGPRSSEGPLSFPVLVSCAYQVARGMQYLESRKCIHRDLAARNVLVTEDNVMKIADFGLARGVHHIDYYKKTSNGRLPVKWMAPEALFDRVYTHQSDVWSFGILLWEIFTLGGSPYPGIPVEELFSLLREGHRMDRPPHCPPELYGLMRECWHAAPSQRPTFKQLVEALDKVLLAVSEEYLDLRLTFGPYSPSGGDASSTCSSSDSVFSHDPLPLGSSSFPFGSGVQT

SMILES	IC50 (FGFR1 (h)) [nM]	IC50 (FGFR2 (h)) [nM]	IC50 (FGFR3 (h)) [nM]	IC50 (FGFR4 (h)) [nM]	BAF3-FGFR1 (MIN IL3) pIC50 [1]	IC50 [2] [nM]	BAF3-FGFR3 (MIN IL3) pIC50 [3]	IC50 [4] [nM]	BAF3-KDR (MIN IL3) pIC50 [5]	IC50 [6] [nM]
COc1cc(OC)cc(N(Cc2nnc(NCCO)o2)c2ccc3ncc(-c4cnn(C)c4)nc3n2)c1 [Compound 282]	33.1	19.1	25.7	105	<5	> 10000	<5	> 10000	<5	> 10000
COc1cc(OC)c(F)c(N(Cc2ncc[nH]2)c2ccc3ncc(N4CCOCC4)nc3n2)c1 [Compound 291]	0.871	1.55	1.2	3.39	8.03	> 10000	7.73	> 10000	5.68	> 10000
COc1cc(OC)c(F)c(N(C)c2ccc3ncc(-c4cnn(C)c4)nc3n2)c1F (single isomer, unassigned) [Compound 254]	0.468	1.05	0.437	1	7.67	> 10000	8.08	> 10000	5.98	> 10000
COc1cc(OC)cc(N(c2ccc3ncc(-c4cnn(C)c4)nc3n2)C(C)c2ncc[nH]2)c1 (stereo not shown) [Compound 280]	0.851	2.04	1.86	2.34	8.64	> 10000	~8.63	> 10000	6.03	> 10000
COc1cc(OC)c(F)c(N(CC(O)COC(C)C)c2ccc3ncc(-c4cnn(CC(O)COC(C)C)c4)nc3n2)c1 (single isomer, unassigned) [Compound 252]	1.95	5.37	4.07	5.13	7.14	> 10000	7.42	> 10000	5.67	> 10000
COc1cc(OC)c(F)c(N(CC2CC2)c2ccc3ncc(-c4cnn(C)c4)nc3n2)c1F (single isomer, unassigned) [Compound 268]	0.912	2.82	1.86	2.57	7.44	> 10000	7.74	> 10000	5.55	> 10000
COc1cc(OC)c(F)c(N(CCS(C)(=O)=O)c2ccc3ncc(-c4cnn(CCS(C)(=O)=O)c4)nc3n2)c1 [Compound 266]	1.45	2.24	1.7	4.27	6.29	> 10000	6.35	> 10000	<5	> 10000
COc1cc(OC)cc(N(CC(C)(C)O)c2ccc3ncc(-c4cnn(C)c4)nc3n2)c1 [Compound 276]	14.5	9.12	8.32	69.2	6.28	> 10000	6.41	> 10000	5.02	> 10000
COc1cc(OC)cc(N(Cc2ncc[nH]2)c2ccc3ncc(N4CCOCC4)nc3n2)c1 [Compound 293]	1.62	1.82	1.58	4.79	7.59	> 10000	7.59	> 10000	5.31	> 10000
COc1cc(OC)c(F)c(N(Cc2ncc[nH]2)c2ccc3ncc(-c4cnn(CCCN)c4)nc3n2)c1 [Compound 295]	0.562	1.74	1.29	2.4	8.47	> 10000	8.17	> 10000	6.45	> 10000
